This note sets out measurements from patent publication US11008325B2, “Inhibitors of cancer invasion, attachment, and/or metastasis” (VIRGINIA COMMONWEALTH UNIVERSITY, priority 2016, dated 2021).

Experiment [1] has as its system U1242-Luc cells. In words: intracranial U1242-Luc tumors, PDZ1i with or without radiation. Type of experiment: in vivo, nude mice. As to the method: FIGS. 14A-14F. PDZ1i treatment combined with radiation in an in vivo model of GBM. FIG. 14A. U1242-luc cells were injected intracranially into nude mice. After 7 days mice were randomized to 4 groups, and mice receiving therapy were treated on days 11-14 as pictured. FIG. 14B. Kaplan-Meier survival curves for each treatment group. Median survival as listed. Two brain tissue samples were isolated for each group, sectioned, and H and E staining is shown. FIG. 14C, DMSO treated mice, FIG. 14D, PDZ1i treated mice, FIG. 14E, mice treated with radiation and DMSO; FIG. 14F, mice treated with radiation and PDZ1i.
PDZ1i combined with radiation extends survival and reduces GBM invasion in vivo. We next investigated the combination of PDZ1i with radiotherapy in vivo. U1242-Luc cells were injected intracranially under anesthesia and formed tumors, confirmed by imaging at 7 d post-injection. At this point, mice were randomized to 4 groups: DMSO treatment, PDZ1i treatment (30 mg/kg), DMSO+IR, and PDZ1i+IR. Treatment began on 11 d post-injection and mice receiving radiation were treated with 2.5 Gy for 4 consecutive d. PDZ1i was administered 2 h prior to radiation treatment on each of the 4 treatment d (FIG. 14A). […] To investigate this, brain tissue sections were collected and H & E stains were analyzed. […]

Experiment [2] deals with prostate adenocarcinoma. In words: Hi-myc spontaneous prostate cancer transgenic model. Type of experiment: in vivo, Hi-myc mice. The conditions noted are these: 30 mg/kg I.P., 9 times for the first three weeks. The procedure: FIG. 19A-19F. PDZ1i suppresses prostate cancer metastasis and tumor progression. FIG. 19A) Survival data for athymic nude mice in which DMSO or PDZ1i pre-treated ARCaPM cells were injected. FIG. 19B) Survival data for athymic nude mice which were injected with (n=5, each group) ARCaPM-Luc (1×10^6 cells in 100 μl saline) through an intracardiac route. Mice received either vehicle or PDZ1i every alternative day (9 injections during the first […]) and maintained until they needed to be euthanized. FIG. 19C) Survival data for C57BL/6 mice injected through the intracardiac route with RM1-Luc. Vehicle or PDZ1i was administered through intraperitoneal injection every alternate day (total 3 injections during the first week). Survival curves were generated using 6 control vehicle-treated and 5 PDZ1i-treated. Kaplan—Meier survival curves were prepared using Graph Pad software. […] Graphical representation of the average prostate weights from control and treated groups. FIG. 19E and FIG. 19F) Photomicrographs representing the histological changes in prostate sections obtained from 6-month old Hi-Myc mice receiving either vehicle (FIG. 19E) or PDZ1i (FIG. 19F). To evaluate potential therapeutic efficacy of PDZ1i four sets of in vivo experiments were conducted. […]

Experiment [3] relates to HCC-driven tumor xenograft. In words: HCC tumor xenograft, alone or with sorafenib. The note with it: in combination with sorafenib, I.P. Type of experiment: in vivo, athymic nude mice. As to the method: FIGS. 48A-48C. Biological effects of PDZ1i in vivo in melanoma, HCC and PC. FIG. 48A) Compounds were administered I.P. 6 times within first two weeks following inoculation (I.V. injection) of B16 cells in C57BL/6 mice to evaluate the anti-metastatic efficacy. FIG. 48B) HCC-driven tumor xenograft was established in athymic nude mice. Compound alone or in combination with Sorafenib were given through I.P. Tumor volumes were considered as an end point of this study. FIG. 48C) Hi-Myc, a mouse model for spontaneous prostate cancer either received the compound or vehicle at the age of 8 weeks (immediate after onset of disease) for total 9 injections (3/week). After 16 weeks from the first injection, prostate were collected and pathologically evaluated. Representative photomicrographs (Left panel) and H and E stained slides (Right panel) from prostate were presented.

“Also recorded” adds a separate entry of the source.

As for `Cc1cc(NC(=O)c2nc3[nH]c4c(c(=O)n3n2)CCC4)c(C)cc1NC(=O)CCc1nnc(-c2ccccc2)o1` [113B7, N-(2,5-dimethyl-4-(3-(5-phenyl-1,3,4-oxadiazol-2-yl)propanamido)phenyl)-8-oxo-5,6,7,8-tetrahydro-4H-cyclopenta[d][1,2,4]triazolo[1,5-a]pyrimidine-2-carboxamide], the average survival in experiment [1] (PDZ1i 30 mg/kg 2 h prior to IR, 2.5 Gy for 4 consecutive d) is 78.8 days; in experiment [1] (PDZ1i 30 mg/kg alone), 54.7 days. For the same molecule, the “size and weight of prostates” value in experiment [2] is listed as “significantly less”. Moreover, the HCC tumor growth entry in experiment [3] is “synergistically inhibited HCC growth; also recorded: inhibit HCC tumor growth”.
